Results reported in ChEMBL document CHEMBL1144455, “A small molecule-kinase interaction map for clinical kinase inhibitors” (Nat Biotechnol, 2005).

How the values were obtained:
[1] = target: T1, Serine/threonine-protein kinase 3 (Mus musculus, UniProt Q9JI10)
T1 sequence (Q9JI10 whole entry): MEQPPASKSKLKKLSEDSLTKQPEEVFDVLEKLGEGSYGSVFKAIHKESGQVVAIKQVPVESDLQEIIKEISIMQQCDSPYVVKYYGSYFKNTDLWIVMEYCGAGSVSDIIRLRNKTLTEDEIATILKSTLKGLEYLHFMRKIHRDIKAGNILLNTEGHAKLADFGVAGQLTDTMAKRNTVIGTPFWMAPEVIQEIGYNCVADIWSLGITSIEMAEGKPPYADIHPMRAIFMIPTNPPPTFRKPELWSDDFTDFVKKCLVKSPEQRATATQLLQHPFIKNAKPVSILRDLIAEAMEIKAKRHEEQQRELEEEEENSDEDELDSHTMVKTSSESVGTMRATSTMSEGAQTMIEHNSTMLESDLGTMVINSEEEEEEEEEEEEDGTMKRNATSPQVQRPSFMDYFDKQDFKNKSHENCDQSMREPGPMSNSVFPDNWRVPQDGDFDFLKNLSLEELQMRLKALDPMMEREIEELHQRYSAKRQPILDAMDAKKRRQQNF

[2] = target: T2, Serine/threonine-protein kinase 36 (Homo sapiens, UniProt Q9NRP7)
T2 sequence (Q9NRP7 whole entry): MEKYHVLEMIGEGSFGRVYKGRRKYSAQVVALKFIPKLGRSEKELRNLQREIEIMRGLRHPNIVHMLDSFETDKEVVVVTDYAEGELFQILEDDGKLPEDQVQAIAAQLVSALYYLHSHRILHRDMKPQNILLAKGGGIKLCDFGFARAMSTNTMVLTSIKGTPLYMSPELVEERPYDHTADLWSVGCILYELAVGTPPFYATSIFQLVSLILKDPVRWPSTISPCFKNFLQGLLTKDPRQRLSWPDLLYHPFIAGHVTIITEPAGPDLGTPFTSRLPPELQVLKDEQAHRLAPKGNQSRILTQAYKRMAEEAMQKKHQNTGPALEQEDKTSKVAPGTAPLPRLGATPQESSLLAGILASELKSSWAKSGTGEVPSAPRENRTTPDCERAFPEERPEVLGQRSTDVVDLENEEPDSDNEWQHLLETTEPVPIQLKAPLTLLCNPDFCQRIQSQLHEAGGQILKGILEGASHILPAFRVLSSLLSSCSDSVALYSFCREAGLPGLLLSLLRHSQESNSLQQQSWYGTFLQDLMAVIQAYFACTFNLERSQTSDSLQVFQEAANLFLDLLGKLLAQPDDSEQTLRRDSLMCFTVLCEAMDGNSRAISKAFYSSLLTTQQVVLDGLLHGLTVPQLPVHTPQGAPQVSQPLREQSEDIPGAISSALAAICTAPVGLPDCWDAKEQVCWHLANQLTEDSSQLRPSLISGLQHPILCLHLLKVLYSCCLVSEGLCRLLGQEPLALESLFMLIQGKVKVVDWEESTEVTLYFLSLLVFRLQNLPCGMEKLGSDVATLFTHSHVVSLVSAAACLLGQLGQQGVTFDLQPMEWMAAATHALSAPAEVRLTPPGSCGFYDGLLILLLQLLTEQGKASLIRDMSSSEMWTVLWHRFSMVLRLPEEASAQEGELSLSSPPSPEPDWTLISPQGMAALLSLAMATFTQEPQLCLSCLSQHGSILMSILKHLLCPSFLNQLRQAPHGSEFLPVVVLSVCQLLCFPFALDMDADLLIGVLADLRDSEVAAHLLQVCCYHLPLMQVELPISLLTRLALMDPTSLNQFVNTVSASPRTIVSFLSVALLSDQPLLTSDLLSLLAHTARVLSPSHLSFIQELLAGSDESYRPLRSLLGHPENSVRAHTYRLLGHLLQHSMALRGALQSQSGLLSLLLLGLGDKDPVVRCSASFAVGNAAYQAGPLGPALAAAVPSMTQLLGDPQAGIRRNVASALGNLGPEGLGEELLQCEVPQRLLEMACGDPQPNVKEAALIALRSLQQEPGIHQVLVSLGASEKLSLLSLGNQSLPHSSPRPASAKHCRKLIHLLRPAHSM

[3] = target: Death-associated protein kinase 3 (Homo sapiens, UniProt O43293)
[4] = target: Protein kinase C alpha type (Homo sapiens, UniProt P17252)
[5] = target: T3, Serine/threonine-protein kinase Nek9 (Homo sapiens, UniProt Q8TD19)
T3 sequence (Q8TD19 whole entry): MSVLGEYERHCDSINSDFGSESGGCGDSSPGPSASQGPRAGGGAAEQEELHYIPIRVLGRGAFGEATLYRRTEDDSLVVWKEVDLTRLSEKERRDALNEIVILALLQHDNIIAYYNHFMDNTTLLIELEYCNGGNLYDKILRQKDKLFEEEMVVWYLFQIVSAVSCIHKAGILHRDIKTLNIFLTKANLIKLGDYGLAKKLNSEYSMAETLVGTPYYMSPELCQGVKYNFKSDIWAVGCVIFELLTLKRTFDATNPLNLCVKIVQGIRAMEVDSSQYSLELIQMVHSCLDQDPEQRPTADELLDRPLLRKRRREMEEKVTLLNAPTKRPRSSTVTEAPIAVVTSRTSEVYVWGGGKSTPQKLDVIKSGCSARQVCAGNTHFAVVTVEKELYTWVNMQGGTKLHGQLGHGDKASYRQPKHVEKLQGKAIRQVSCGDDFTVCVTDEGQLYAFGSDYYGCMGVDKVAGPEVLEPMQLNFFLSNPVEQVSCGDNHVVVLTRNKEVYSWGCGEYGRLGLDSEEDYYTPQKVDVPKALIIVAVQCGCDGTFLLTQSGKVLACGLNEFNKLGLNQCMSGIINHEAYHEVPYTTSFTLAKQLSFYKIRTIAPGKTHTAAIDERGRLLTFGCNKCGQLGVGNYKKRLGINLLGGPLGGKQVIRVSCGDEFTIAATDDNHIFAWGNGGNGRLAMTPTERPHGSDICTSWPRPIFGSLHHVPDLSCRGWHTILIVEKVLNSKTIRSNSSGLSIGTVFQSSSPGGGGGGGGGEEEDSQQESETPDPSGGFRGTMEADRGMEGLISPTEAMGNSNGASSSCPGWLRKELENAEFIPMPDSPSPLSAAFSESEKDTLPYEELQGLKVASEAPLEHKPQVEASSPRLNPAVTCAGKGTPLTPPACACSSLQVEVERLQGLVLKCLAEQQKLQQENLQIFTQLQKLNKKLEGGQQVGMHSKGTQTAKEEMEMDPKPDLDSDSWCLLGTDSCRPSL

[6] = target: Serine/threonine-protein kinase pim-1 (Homo sapiens, UniProt P11309)

Measured: Kd

Sequence of Death-associated protein kinase 3 (O43293 whole entry): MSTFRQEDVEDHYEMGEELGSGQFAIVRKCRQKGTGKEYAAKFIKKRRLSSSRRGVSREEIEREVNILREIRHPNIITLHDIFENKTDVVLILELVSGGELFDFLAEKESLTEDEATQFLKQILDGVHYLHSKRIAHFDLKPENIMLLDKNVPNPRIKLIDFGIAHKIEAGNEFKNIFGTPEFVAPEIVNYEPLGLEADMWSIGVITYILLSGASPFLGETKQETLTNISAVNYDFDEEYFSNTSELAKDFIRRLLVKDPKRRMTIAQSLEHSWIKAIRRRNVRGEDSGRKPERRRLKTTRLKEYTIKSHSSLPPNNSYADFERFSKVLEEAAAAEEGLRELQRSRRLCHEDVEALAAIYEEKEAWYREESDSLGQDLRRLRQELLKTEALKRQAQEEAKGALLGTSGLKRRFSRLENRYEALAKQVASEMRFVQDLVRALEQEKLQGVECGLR
Sequence of Serine/threonine-protein kinase pim-1 (P11309 whole entry): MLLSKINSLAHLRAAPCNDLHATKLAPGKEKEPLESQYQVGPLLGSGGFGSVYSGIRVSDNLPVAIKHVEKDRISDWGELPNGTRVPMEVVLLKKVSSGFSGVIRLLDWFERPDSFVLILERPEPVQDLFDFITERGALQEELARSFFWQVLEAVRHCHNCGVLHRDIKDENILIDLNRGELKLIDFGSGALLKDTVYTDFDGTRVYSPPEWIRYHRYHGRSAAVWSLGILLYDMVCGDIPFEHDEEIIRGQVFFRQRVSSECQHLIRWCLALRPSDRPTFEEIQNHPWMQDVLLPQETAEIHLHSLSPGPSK

C#Cc1cccc(Nc2ncnc3cc(OCCOC)c(OCCOC)cc23)c1 [ERLOTINIB]
Not Active: [1] | [2] | [3] | [4] | [5] | [6]

Cc1ccc(NC(=O)c2ccc(CN3CCN(C)CC3)cc2)cc1Nc1nccc(-c2cccnc2)n1 [IMATINIB]
Not Active: [1] | [2] | [3] | [4] | [5] | [6]

O=c1ncn2nc(Sc3ccc(F)cc3F)ccc2c1-c1c(Cl)cccc1Cl [NEFLAMAPIMOD]
Not Active: [1] | [2] | [3] | [4] | [5] | [6]

CCOc1cc2ncc(C#N)c(Nc3ccc(F)c(Cl)c3)c2cc1NC(=O)/C=C/CN(C)C [PELITINIB]
Not Active: [4] | [5] | [6]

Oc1ccc(-c2nc(-c3ccc(F)cc3)c(-c3ccncc3)[nH]2)cc1 [SB-202190]
Not Active: [1] | [3] | [4] | [5] | [6]

C[S+]([O-])c1ccc(-c2nc(-c3ccc(F)cc3)c(-c3ccncc3)[nH]2)cc1 (configuration not stated) [SB-203580]
Not Active: [1] | [3] | [4] | [5] | [6]

CC[C@H](CO)Nc1nc(NCc2ccccc2)c2ncn(C(C)C)c2n1 [SELICICLIB]
Not Active: [1] | [2] | [3] | [4] | [5] | [6]

Oc1c2ccccc2c2c3c(cccc13)N=N2 [SP-600125]
Not Active: [2] | [4] | [5] | [6]

COc1cc2c(N3CCN(C(=O)Nc4ccc(OC(C)C)cc4)CC3)ncnc2cc1OCCCN1CCCCC1 [TANDUTINIB]
Not Active: [1] | [2] | [3] | [4] | [5] | [6]
